# In paper PMC9232501, “Results of the phase I CCTG IND.231 trial of CX-5461 in patients with advanced solid tumors enriched for DNA-repair deficiencies” (Nature Communications, 2022):
# Where “and” joins values, the source holds several entries; their conditions need not be identical. Identical values can stand only once.
# Test: Plasma pharmacokinetics of CX-5461 (HPLC-MS/MS, non-compartmental)
# Format: in vivo, human
# Parameters: Day 1 CX-5461 plasma concentration: unit not given here
# Conditions: for Day 1 Cmax / Day 8 or 15 Cmax / Day 1 AUC / Day 8 or 15 AUC: one patient per datapoint; for Day 1 Cmax / Day 8 or 15 Cmax: in ng/mL; for Day 1 AUC / Day 8 or 15 AUC: in ng·h/mL (unit assumed)
# Description: PK was assessed on all patients in the escalation phase. Venous blood samples were collected on treatment days 1, 8, and 15 (where applicable), and plasma CX-5461 was analyzed with HPLC-MS/MS (schedule details in Supplementary Table 3). PK parameters were calculated with non-compartmental methods. […] The protocol was amended to allow submission of a ctDNA sample and in a further amendment, a mandatory skin biopsy (pre-treatment and cycle 1 day 15) to study phototoxic effects. Fresh tumor biopsies were optional.
# Supplementary Table 3. Schedule for collection of CX5461 pharmacokinetics
# During infusion at 30 minutes
# Immediately post infusion then:
# C1D1 30 minutes post infusion
# C1D2 24 hours post infusion
# C1D3 48 hours post infusion
# C1D4 72 hours post infusion
# Immediately post infusion then
# C1D15 30 minutes post infusion
# C1D16 24 hours post infusion
# In addition to the specific time points listed above, additional samples were to be collected from […]
compound,measurement,setting,value
Cc1cnc(CNC(=O)c2c(=O)c3ccc(N4CCCN(C)CC4)nc3n3c2sc2ccccc23)cn1 [CX-5461],Day 1 CX-5461 plasma concentration,"50 mg/m2, Time 0, individual patients",623
same,Day 1 CX-5461 plasma concentration,"50 mg/m2, Time 24, individual patients",40.3 and 34
same,Day 1 CX-5461 plasma concentration,"50 mg/m2, Time 48, individual patients",40 and 22.9
same,Day 1 CX-5461 plasma concentration,"50 mg/m2, Time 72, individual patients",16.6 and 12.9
same,Day 1 CX-5461 plasma concentration,"100 mg/m2, Time 24, individual patients",53.2 and 76.4 and 34.5 and 70.1
same,Day 1 CX-5461 plasma concentration,"100 mg/m2, Time 48, individual patients",49 and 52 and 48
same,Day 1 CX-5461 plasma concentration,"100 mg/m2, Time 72, individual patients",28 and 33.5 and 33.8
same,Day 1 CX-5461 plasma concentration,"150 mg/m2, Time 0, individual patients",415 and 821
same,Day 1 CX-5461 plasma concentration,"150 mg/m2, Time 24, individual patients",176 and 102 and 165 and 350
same,Day 1 CX-5461 plasma concentration,"150 mg/m2, Time 48, individual patients",135 and 49 and 101 and 265
same,Day 1 CX-5461 plasma concentration,"150 mg/m2, Time 72, individual patients",90.2 and 31.2 and 92.6 and 180
same,Day 1 CX-5461 plasma concentration,"200 mg/m2, Time 0, individual patients",218 and 3210 and 1850 and 745
same,Day 1 CX-5461 plasma concentration,"200 mg/m2, Time 24, individual patients",102 and 78.2 and 124
same,Day 1 CX-5461 plasma concentration,"200 mg/m2, Time 48, individual patients",55 and 145 and 69.8 and 79.1
same,Day 1 CX-5461 plasma concentration,"200 mg/m2, Time 72, individual patients",52.5 and 43.9 and 51.7
same,Day 1 CX-5461 plasma concentration,"250 mg/m2, Time 24, individual patients",125 and 233
same,Day 1 CX-5461 plasma concentration,"250 mg/m2, Time 48, individual patients",101 and 169
same,Day 1 CX-5461 plasma concentration,"250 mg/m2, Time 72, individual patients",68 and 111
same,Day 1 CX-5461 plasma concentration,"325 mg/m2, Time 24, individual patients",160 and 193
same,Day 1 CX-5461 plasma concentration,"325 mg/m2, Time 48, individual patients",132 and 97
same,Day 1 CX-5461 plasma concentration,"325 mg/m2, Time 72, individual patients",121 and 69.4
same,Day 1 CX-5461 plasma concentration,"475 mg/m2, Time 24, individual patients",222 and 204
same,Day 1 CX-5461 plasma concentration,"475 mg/m2, Time 48, individual patients",199 and 146
same,Day 1 CX-5461 plasma concentration,"475 mg/m2, Time 72, individual patients",203 and 132
same,Day 1 CX-5461 plasma concentration,"650 mg/m2, Time 24, individual patients",255 and 361 and 196 and 161 and 173 and 233
same,Day 1 CX-5461 plasma concentration,"650 mg/m2, Time 48, individual patients",234 and 439 and 165 and 107 and 154
same,Day 1 CX-5461 plasma concentration,"650 mg/m2, Time 72, individual patients",322 and 261 and 170 and 87.5 and 137 and 154
same,Day 1 CX-5461 plasma concentration,"B: 325 mg/m2, Time 24, individual patients",254 and 120 and 133 and 175
same,Day 1 CX-5461 plasma concentration,"B: 325 mg/m2, Time 48, individual patients",156 and 435 and 136
same,Day 1 CX-5461 plasma concentration,"B: 325 mg/m2, Time 72, individual patients",93.9 and 199 and 103
same,Day 1 CX-5461 plasma concentration,"B: 475 mg/m2, Time 24, individual patients",401 and 324 and 275 and 184
same,Day 1 CX-5461 plasma concentration,"B: 475 mg/m2, Time 48, individual patients",288 and 213 and 252
same,Day 1 CX-5461 plasma concentration,"B: 475 mg/m2, Time 72, individual patients",187 and 199 and 113
same,Day 1 Cmax,Dose level 50 (mg/m2),623 and 1070 and 830 and 388
same,Day 8 or 15 Cmax,Dose level 50 (mg/m2),616 and 1040 and 271
same,Day 1 AUC,Dose level 50 (mg/m2),4080 and 3310
same,Day 8 or 15 AUC,Dose level 50 (mg/m2),6520 and 1970 and 4580
same,Day 1 Cmax,Dose level 100 (mg/m2),1580 and 662 and 799 and 1330
same,Day 8 or 15 Cmax,Dose level 100 (mg/m2),1030 and 243
same,Day 1 AUC,Dose level 100 (mg/m2),4870 and 3830 and 5290
same,Day 8 or 15 AUC,Dose level 100 (mg/m2),7780 and 8830 and 2350
same,Day 1 Cmax,Dose level 150 (mg/m2),2370 and 1080 and 1010
same,Day 8 or 15 Cmax,Dose level 150 (mg/m2),1970 and 1090 and 697
same,Day 1 AUC,Dose level 150 (mg/m2),12000 and 19500 and 11500 and 7650
same,Day 8 or 15 AUC,Dose level 150 (mg/m2),18700 and 23900 and 12600
same,Day 1 Cmax,Dose level 200 (mg/m2),265 and 3210 and 805
same,Day 8 or 15 Cmax,Dose level 200 (mg/m2),1560 and 170 and 2180 and 795
same,Day 1 AUC,Dose level 200 (mg/m2),5690 and 22300 and 12900 and 8410
same,Day 8 or 15 AUC,Dose level 200 (mg/m2),9650 and 2530 and 25500 and 14100
same,Day 1 Cmax,Dose level 250 (mg/m2),867 and 2350 and 1010
same,Day 8 or 15 Cmax,Dose level 250 (mg/m2),1290 and 368 and 654
same,Day 1 AUC,Dose level 250 (mg/m2),16300 and 16100
same,Day 8 or 15 AUC,Dose level 250 (mg/m2),21800 and 18700
same,Day 1 Cmax,Dose level 325 (mg/m2),938 and 960
same,Day 8 or 15 Cmax,Dose level 325 (mg/m2),482 and 1190
same,Day 1 AUC,Dose level 325 (mg/m2),12800 and 11200
same,Day 8 or 15 AUC,Dose level 325 (mg/m2),15200
same,Day 1 Cmax,Dose level 475 (mg/m2),1460 and 2510
same,Day 8 or 15 Cmax,Dose level 475 (mg/m2),1500 and 1940
same,Day 1 AUC,Dose level 475 (mg/m2),17900 and 17100
same,Day 8 or 15 AUC,Dose level 475 (mg/m2),7410 and 31300 and 32900
same,Day 1 Cmax,Dose level 650 (mg/m2),4290 and 1840 and 2280 and 3810 and 3180
same,Day 8 or 15 Cmax,Dose level 650 (mg/m2),6050 and 2790 and 2540 and 5480 and 3990
same,Day 1 AUC,Dose level 650 (mg/m2),29600 and 16700 and 21400
same,Day 8 or 15 AUC,Dose level 650 (mg/m2),48200 and 23200 and 59300 and 44400 and 13900
same,Day 1 Cmax,Dose level B: 325 (mg/m2),1030 and 1200 and 1520
same,Day 8 or 15 Cmax,Dose level B: 325 (mg/m2),3590 and 1510 and 1240
same,Day 1 AUC,Dose level B: 325 (mg/m2),19700 and 20400 and 21500
same,Day 8 or 15 AUC,Dose level B: 325 (mg/m2),48100 and 7080 and 11700 and 7620
same,Day 1 Cmax,Dose level B: 475 (mg/m2),2510 and 2620 and 1660 and 982 and 953
same,Day 8 or 15 Cmax,Dose level B: 475 (mg/m2),1370 and 2630 and 6800 and 1020
same,Day 1 AUC,Dose level B: 475 (mg/m2),43600 and 26400 and 23500 and 32100
same,Day 8 or 15 AUC,Dose level B: 475 (mg/m2),18300 and 14200 and 52600 and 11900 and 7800
same,concentration at 0.5 h,"human, plasma, intravenous, 50 mg/m2, 50 mg/m2, Time 0.5, individual patients, read-out: Day 1 CX-5461 plasma concentration",155 ng/mL
same,concentration at 1 h,"human, plasma, intravenous, 50 mg/m2, 50 mg/m2, Time 1, individual patients, read-out: Day 1 CX-5461 plasma concentration",104 ng/mL
same,concentration at 2 h,"human, plasma, intravenous, 50 mg/m2, 50 mg/m2, Time 2, individual patients, read-out: Day 1 CX-5461 plasma concentration",96.5 ng/mL
same,concentration at 4 h,"human, plasma, intravenous, 50 mg/m2, 50 mg/m2, Time 4, individual patients, read-out: Day 1 CX-5461 plasma concentration",74.9 ng/mL
same,concentration at 6 h,"human, plasma, intravenous, 50 mg/m2, 50 mg/m2, Time 6, individual patients, read-out: Day 1 CX-5461 plasma concentration",61.6 ng/mL
same,concentration at 24 h,"human, plasma, intravenous, 50 mg/m2, 50 mg/m2, Time 24, individual patients, read-out: Day 1 CX-5461 plasma concentration",40 ng/mL
